Reference: PubChem BioAssay AID1259407 (Chemical Carcinogenesis Research Information System (CCRIS), 2018)
Entries after “also recorded” stand apart in the source; their conditions may differ. Calls of active or inactive are those of the source. No rule for the calls is given here.

Tested on: CCRIS mutagenicity, Ames/micronucleus/aberration tests
Assay: CCRIS mutagenicity studies

**Q.** What does the source list for O=C(c1ccccc1)C(O)c1ccccc1 (stereo unspecified)?
**A.** mutagenic call (End Point: IN VITRO CHROMOSOMAL ABERRATIONS, Test System: CHL/IU CELLS, Metabolic Activation: RAT, LIVER, S-9, PHENOBARBITAL AND 5,6-BENZOFLAVONE): active; positive (structural changes); mutagenic call (End Point: IN VITRO CHROMOSOMAL ABERRATIONS, Test System: CHO CELLS, Metabolic Activation: NONE): active; positive; weak response; precipitation occurred at 500 ug/ml; also recorded: inactive; negative; precipitation occurred at 500 ug/ml; mutagenic call (End Point: IN VITRO MICRONUCLEUS, Test System: CHL/IU CELLS, Metabolic Activation: RAT, LIVER, S-9, PHENOBARBITAL AND 5,6-BENZOFLAVONE): active; positive; mutagenic call (End Point: IN VIVO MICRONUCLEUS, Test System: BLOOD ERYTHROCYTES, Species: MOUSE, Strain/Sex: CD-1/MALE, Route: ORAL): inactive; negative; mutagenic call (Test System: AMES SALMONELLA TYPHIMURIUM, Strain/Indicator: TA97, Metabolic Activation: HAMSTER LIVER S-9, AROCLOR 1254 (10%), Method: PREINCUBATION): inactive; negative; mutagenic call (Test System: AMES SALMONELLA TYPHIMURIUM, Strain/Indicator: TA97, Metabolic Activation: NONE, Method: PREINCUBATION): inactive; negative; mutagenic call (Test System: AMES SALMONELLA TYPHIMURIUM, Strain/Indicator: TA97, Metabolic Activation: NONE, Method: STANDARD PLATE): inactive; negative; mutagenic call (Test System: AMES SALMONELLA TYPHIMURIUM, Strain/Indicator: TA97, Metabolic Activation: RAT LIVER S-9, AROCLOR 1254 (10%), Method: PREINCUBATION): inactive; negative; mutagenic call (Test System: AMES SALMONELLA TYPHIMURIUM, Strain/Indicator: TA97, Metabolic Activation: S-9, Method: STANDARD PLATE): inactive; negative; mutagenic call (Test System: AMES SALMONELLA TYPHIMURIUM, Strain/Indicator: TA98, Metabolic Activation: HAMSTER LIVER S-9, AROCLOR 1254 (10%), Method: PREINCUBATION): inactive; negative; mutagenic call (Test System: AMES SALMONELLA TYPHIMURIUM, Strain/Indicator: TA98, Metabolic Activation: NONE, Method: PREINCUBATION): inactive; negative; mutagenic call (Test System: AMES SALMONELLA TYPHIMURIUM, Strain/Indicator: TA98, Metabolic Activation: NONE, Method: STANDARD PLATE): inactive; negative; mutagenic call (Test System: AMES SALMONELLA TYPHIMURIUM, Strain/Indicator: TA98, Metabolic Activation: RAT LIVER S-9, AROCLOR 1254 (10%), Method: PREINCUBATION): inactive; negative; mutagenic call (Test System: AMES SALMONELLA TYPHIMURIUM, Strain/Indicator: TA98, Metabolic Activation: RAT, LIVER, S-9, AROCLOR 1254, Method: STANDARD PLATE): inactive; negative; mutagenic call (Test System: AMES SALMONELLA TYPHIMURIUM, Strain/Indicator: TA98, Metabolic Activation: S-9, Method: STANDARD PLATE): inactive; negative; mutagenic call (Test System: AMES SALMONELLA TYPHIMURIUM, Strain/Indicator: TA100, Metabolic Activation: HAMSTER LIVER S-9, AROCLOR 1254 (10%), Method: PREINCUBATION): inactive; negative; mutagenic call (Test System: AMES SALMONELLA TYPHIMURIUM, Strain/Indicator: TA100, Metabolic Activation: NONE, Method: PREINCUBATION): inactive; negative; mutagenic call (Test System: AMES SALMONELLA TYPHIMURIUM, Strain/Indicator: TA100, Metabolic Activation: NONE, Method: STANDARD PLATE): inactive; negative; mutagenic call (Test System: AMES SALMONELLA TYPHIMURIUM, Strain/Indicator: TA100, Metabolic Activation: RAT LIVER S-9 AROCLOR 1254 (10%), Method: PREINCUBATION): inactive; negative; mutagenic call (Test System: AMES SALMONELLA TYPHIMURIUM, Strain/Indicator: TA100, Metabolic Activation: RAT, LIVER, S-9, AROCLOR 1254, Method: STANDARD PLATE): inactive; negative; mutagenic call (Test System: AMES SALMONELLA TYPHIMURIUM, Strain/Indicator: TA100, Metabolic Activation: S-9, Method: STANDARD PLATE): inactive; negative; mutagenic call (Test System: AMES SALMONELLA TYPHIMURIUM, Strain/Indicator: TA102, Metabolic Activation: NONE, Method: STANDARD PLATE): inactive; negative; mutagenic call (Test System: AMES SALMONELLA TYPHIMURIUM, Strain/Indicator: TA102, Metabolic Activation: RAT LIVER S-9, PHENOBARBITAL AND 5,6-BENZOFLAVONE, Method: STANDARD PLATE): inactive; negative; mutagenic call (Test System: AMES SALMONELLA TYPHIMURIUM, Strain/Indicator: TA102, Metabolic Activation: RAT, LIVER, S-9, AROCLOR 1254, Method: STANDARD PLATE): inactive; negative; mutagenic call (Test System: AMES SALMONELLA TYPHIMURIUM, Strain/Indicator: TA102, Metabolic Activation: S-9, Method: STANDARD PLATE): inactive; negative; mutagenic call (Test System: AMES SALMONELLA TYPHIMURIUM, Strain/Indicator: TA1535, Metabolic Activation: HAMSTER LIVER S-9, AROCLOR 1254 (5%), Method: PREINCUBATION): inactive; negative; mutagenic call (Test System: AMES SALMONELLA TYPHIMURIUM, Strain/Indicator: TA1535, Metabolic Activation: HAMSTER LIVER S-9, AROCLOR 1254 (10%), Method: PREINCUBATION): inactive; negative; mutagenic call (Test System: AMES SALMONELLA TYPHIMURIUM, Strain/Indicator: TA1535, Metabolic Activation: NONE, Method: PREINCUBATION): active; positive; mutagenic call (Test System: AMES SALMONELLA TYPHIMURIUM, Strain/Indicator: TA1535, Metabolic Activation: NONE, Method: STANDARD PLATE): inactive; negative; mutagenic call (Test System: AMES SALMONELLA TYPHIMURIUM, Strain/Indicator: TA1535, Metabolic Activation: RAT LIVER S-9, AROCLOR 1254 (5%), Method: PREINCUBATION): inactive; negative; mutagenic call (Test System: AMES SALMONELLA TYPHIMURIUM, Strain/Indicator: TA1535, Metabolic Activation: RAT LIVER S-9, AROCLOR 1254 (10%), Method: PREINCUBATION): inactive; negative; mutagenic call (Test System: AMES SALMONELLA TYPHIMURIUM, Strain/Indicator: TA1535, Metabolic Activation: RAT, LIVER, S-9, AROCLOR 1254, Method: STANDARD PLATE): inactive; negative; mutagenic call (Test System: AMES SALMONELLA TYPHIMURIUM, Strain/Indicator: TA1537, Metabolic Activation: NONE, Method: STANDARD PLATE): inactive; negative; mutagenic call (Test System: AMES SALMONELLA TYPHIMURIUM, Strain/Indicator: TA1537, Metabolic Activation: RAT, LIVER, S-9, AROCLOR 1254, Method: STANDARD PLATE): inactive; negative; mutagenic call (Test System: AMES SALMONELLA TYPHIMURIUM, Strain/Indicator: TA1538, Metabolic Activation: NONE, Method: STANDARD PLATE): inactive; negative; mutagenic call (Test System: AMES SALMONELLA TYPHIMURIUM, Strain/Indicator: TA1538, Metabolic Activation: RAT, LIVER, S-9, AROCLOR 1254, Method: STANDARD PLATE): inactive; negative; mutagenic call (Test System: AMES SALMONELLA TYPHIMURIUM, Strain/Indicator: TA2638, Metabolic Activation: RAT LIVER S-9, PHENOBARBITAL AND 5,6-BENZOFLAVONE, Method: STANDARD PLATE): inactive; negative; mutagenic call (Test System: CHINESE HAMSTER OVARY, Strain/Indicator: CHO-K1-BH4 (HGPRT)/6-THIOGUANINE, Metabolic Activation: NONE, Method: SUSPENSION/PLATE): inactive; negative; mutagenic call (Test System: CHINESE HAMSTER OVARY, Strain/Indicator: CHO-K1-BH4 (HGPRT)/6-THIOGUANINE, Metabolic Activation: S-9, Method: SUSPENSION/PLATE): inactive; negative; mutagenic call (Test System: CHINESE HAMSTER OVARY, Strain/Indicator: CHO-K1-BH4 (HGPRT), Metabolic Activation: NONE, Method: SUSPENSION/PLATE): inactive; negative; mutagenic call (Test System: CHINESE HAMSTER OVARY, Strain/Indicator: CHO-K1-BH4 (HGPRT), Metabolic Activation: RAT, LIVER, S-9, AROCLOR, Method: SUSPENSION/PLATE): inactive; negative; mutagenic call (Test System: CHINESE HAMSTER V-79, Strain/Indicator: V-79 (HGPRT)/8-AZAGUANINE, Metabolic Activation: NONE, Method: REPLATING): inactive; negative; mutagenic call (Test System: CHINESE HAMSTER V-79, Strain/Indicator: V-79 (HGPRT)/8-AZAGUANINE, Metabolic Activation: RAT, LIVER, S-9, AROCLOR 1254, Method: REPLATING): active; positive; mutagenic call (Test System: CHINESE HAMSTER V-79, Strain/Indicator: V-79/6-THIOGUANINE, Metabolic Activation: NONE, Method: REPLATING): inactive; negative; mutagenic call (Test System: CHINESE HAMSTER V-79, Strain/Indicator: V-79/6-THIOGUANINE, Metabolic Activation: RAT, LIVER, S-9, PHENOBARBITAL AND 5,6-BENZOFLAVONE, Method: REPLATING): active; positive; mutagenic call (Test System: CHINESE HAMSTER V-79, Strain/Indicator: V-79/OUABAIN, Metabolic Activation: HAMSTER EMBRYO CELL-MEDIATED): inactive; negative; mutagenic call (Test System: CHINESE HAMSTER V-79, Strain/Indicator: V-79/OUABAIN, Metabolic Activation: NONE): inactive; negative; mutagenic call (Test System: CHINESE HAMSTER V-79, Strain/Indicator: V-79/OUABAIN, Metabolic Activation: RAT, LIVER, S-15, PHENOBARBITAL AND 5,6-BENZOFLAVONE): inactive; negative; mutagenic call (Test System: E. COLI, Strain/Indicator: WP2 (PKM101), Metabolic Activation: RAT LIVER S-9, PHENOBARBITAL AND 5,6-BENZOFLAVONE, Method: STANDARD PLATE): inactive; negative; mutagenic call (Test System: E. COLI, Strain/Indicator: WP2 UVRA (PKM101), Metabolic Activation: RAT LIVER S-9, PHENOBARBITAL AND 5,6-BENZOFLAVONE, Method: STANDARD PLATE): inactive; negative; mutagenic call (Test System: MOUSE LYMPHOMA, Strain/Indicator: L5178Y (TK+/-)/TRIFLUROTHYMIDINE, Metabolic Activation: NONE, Method: SUSPENSION/PLATE): inactive; negative; mutagenic call (Test System: MOUSE LYMPHOMA, Strain/Indicator: L5178Y (TK+/-)/TRIFLUROTHYMIDINE, Metabolic Activation: RAT LIVER S-9, AROCLOR 1254, Method: SUSPENSION/PLATE): inactive; negative; mutagenic call (Test System: MOUSE LYMPHOMA, Strain/Indicator: L5178Y (TK+/TK-), Metabolic Activation: NONE, Method: SUSPENSION/PLATE): inactive; negative; mutagenic call (Test System: MOUSE LYMPHOMA, Strain/Indicator: L5178Y (TK+/TK-), Metabolic Activation: RAT, LIVER, S-9, Method: SUSPENSION/PLATE): inactive; negative; mutagenic call (Test System: MOUSE LYMPHOMA, Strain/Indicator: L5178Y (TK+/TK-), Metabolic Activation: S-9, Method: SUSPENSION/PLATE): active; positive; mutagenic call (Test System: UDS RAT HEPATOCYTES, Strain/Indicator: THY INCORP, Metabolic Activation: NONE, Method: LIQUID SCINTILLATION COUNTING): active; positive
